From patent publication US12312332B2 (Merck Sharp & Dohme LLC., priority 2019, dated 2025) come the findings set out here.

The EC50 is the concentration needed to bring the measured effect to its halfway point.

Each structure is given as a SMILES string.

The assay addresses T1, human OX2R (Homo sapiens, UniProt O43614).
T1 construct: expressed in transfected cells; host or cells: Chinese hamster ovary (CHO) cells, kept under G418 selection
T1 sequence (O43614 1-444): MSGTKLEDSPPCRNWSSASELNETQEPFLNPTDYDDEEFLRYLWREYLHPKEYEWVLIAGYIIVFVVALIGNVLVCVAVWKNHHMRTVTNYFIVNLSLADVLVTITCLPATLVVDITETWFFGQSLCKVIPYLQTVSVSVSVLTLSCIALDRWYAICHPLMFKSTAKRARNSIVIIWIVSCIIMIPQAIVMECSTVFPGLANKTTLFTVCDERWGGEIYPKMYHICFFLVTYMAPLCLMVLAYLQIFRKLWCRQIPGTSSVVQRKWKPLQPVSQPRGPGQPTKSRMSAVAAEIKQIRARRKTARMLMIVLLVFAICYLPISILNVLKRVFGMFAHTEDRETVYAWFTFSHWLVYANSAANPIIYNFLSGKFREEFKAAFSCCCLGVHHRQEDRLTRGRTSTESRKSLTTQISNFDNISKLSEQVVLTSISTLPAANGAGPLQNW
Kind of assay: IPOne (IP-One) orexin receptor agonist assay in CHO cells expressing human OX2R. Type of assay: cell-based. The note with it: for EC50: CHO cells expressing human OX2R, IP-One detection, 2 hours incubation, four parameter logistic fit, read-out: OX2R Potency, EC50; for % max agonist effect (Emax): human OX2R, percentage of sample raw value/mean max effect (reference compound at 1 uM with 100% activity). The source says: The utility of the compounds in accordance with the present invention as orexin receptor OX1R and/or OX2R agonists may be readily determined without undue experimentation by methodology well known in the art. Both the OX1R and/or OX2R G-coupled protein receptors (GPCRs) couple through the Gaq signaling pathway, which ultimately promotes calcium mobilization via inositol triphosphate (IP3) production. […] The utility of the compounds in accordance with the present invention as orexin receptor OX1R and/or OX2R agonists may be determined utilizing this assay.
In a typical experiment, the OX1 and OX2 receptor agonist activity is determined in accordance with the following general experimental method. Chinese hamster ovary (CHO) cells expressing human OX1R and/or the human OX2R were grown in Iscove's modified DMEM containing glutaMAX™, 1% G418, 100 U/mL penicillin, 100 μg/mL streptomycin and 10% heat-inactivated qualified fetal bovine serum (FBS). […] During this incubation, IP-one detection reagents were prepared (38:1:1 lysis buffer:D2:AB-cryptate reagents).
For each compound, data were fit to a four parameter logistic fit (ActivityBase software) and the EC50 was reported as the inflection point of the resulting curve. Percent effect for each test compound was determined as the percentage of sample raw value/mean max effect, where the mean max effect was derived from the mean raw value of 32 control wells per assay plate (using Orexin A (cat #003-30) at 1 μM for human OX1R and a reference compound at 1 uM with 100% activity previously established by comparison to Orexin A for human OX2R). The intrinsic orexin receptor agonist activity of a compound which may be used in the present invention may be determined by these assays.

`CS(=O)(=O)N[C@H]1CCN(c2cncnc2)[C@H]1CO[C@H]1CC[C@@H](c2ccccc2)CC1` [Example 42, N-((2R,3S)-2-((((CIS)-4-phenylcyclohexyl)oxy)methyl)-1-(pyrimidin-5-yl)pyrrolidin-3-yl)methanesulfonamide]: the EC50 is 134 nM and the “% max agonist effect (Emax)” value stood at 100.9%.

For the compound `CS(=O)(=O)N[C@H]1CCN(c2ccnc(CO)c2)[C@H]1CO[C@H]1CC[C@@H](c2ccccc2)CC1` [Example 43, N-((2R,3S)-1-(2-(hydroxymethyl)pyridin-4-yl)-2-((((CIS)-4-phenylcyclohexyl)oxy)methyl)pyrrolidin-3-yl)methanesulfonamide], the EC50 was 3540 nM and the “% max agonist effect (Emax)” value came out at 90.4%.

With `CC(C)(O)c1cc(N2CC[C@H](NS(C)(=O)=O)[C@@H]2CO[C@H]2CC[C@@H](c3ccccc3)CC2)ccn1` [Example 44, N-((2R,3S)-1-(2-(2-hydroxypropan-2-yl)pyridin-4-yl)-2-((((CIS)-4-phenylcyclohexyl)oxy)methyl)pyrrolidin-3-yl)methanesulfonamide], the EC50 was more than 10000 nM and the “% max agonist effect (Emax)” value is 22.0%.

For the compound `Cc1cc(N2CC[C@H](NS(C)(=O)=O)[C@@H]2CO[C@H]2CC[C@@H](c3ccccc3)CC2)cnc1CO` [Example 45, N-((2R,3S)-1-(6-(hydroxymethyl)-5-methylpyridin-3-yl)-2-((((CIS)-4-phenylcyclohexyl)oxy)methyl)pyrrolidin-3-yl)methanesulfonamide], the EC50 was 1410 nM and the “% max agonist effect (Emax)” value is recorded as 97.2%.

On to `CS(=O)(=O)N[C@H]1CCN(c2cc(C(F)(F)F)ncn2)[C@H]1CO[C@H]1CC[C@@H](c2ccccc2)CC1` [Example 46, N-((2R,3S)-2-((((CIS)-4-phenylcyclohexyl)oxy)methyl)-1-(6-(trifluoromethyl)pyrimidin-4-yl)pyrrolidin-3-yl)methanesulfonamide], for which the EC50 is more than 10000 nM and the “% max agonist effect (Emax)” value is reported as 43.4%.

For `CS(=O)(=O)N[C@H]1CCN(c2cncc(O)c2)[C@H]1CO[C@H]1CC[C@@H](c2ccccc2)CC1` [Example 47, N-((2R,3S)-1-(5-hydroxypyridin-3-yl)-2-((((CIS)-4-phenylcyclohexyl)oxy)methyl)pyrrolidin-3-yl)methanesulfonamide], the EC50 is 9 nM and the “% max agonist effect (Emax)” value was 101.4%.

`Cc1nccc(N2CC[C@H](NS(C)(=O)=O)[C@@H]2CO[C@H]2CC[C@@H](c3ccccc3)CC2)n1` [Example 48, N-((2R,3S)-1-(2-methylpyrimidin-4-yl)-2-((((CIS)-4-phenylcyclohexyl)oxy)methyl)pyrrolidin-3-yl)methanesulfonamide]: the EC50 is 6830 nM and the “% max agonist effect (Emax)” value was determined as 77.3%.

Turning to `CS(=O)(=O)N[C@H]1CCN(c2cncc(CO)c2)[C@H]1CO[C@H]1CC[C@@H](c2ccccc2)CC1` [Example 49, N-((2R,3S)-1-(5-(hydroxymethyl)pyridin-3-yl)-2-((((CIS)-4-phenylcyclohexyl)oxy)methyl)pyrrolidin-3-yl)methanesulfonamide], the EC50 was 217 nM and the “% max agonist effect (Emax)” value stood at 99.6%.

With `CS(=O)(=O)N[C@H]1CCN(c2cncc(C(F)(F)F)c2)[C@H]1CO[C@H]1CC[C@@H](c2ccccc2)CC1` [Example 50, N-((2R,3S)-2-((((CIS)-4-phenylcyclohexyl)oxy)methyl)-1-(5-(trifluoromethyl)pyridin-3-yl)pyrrolidin-3-yl)methanesulfonamide], the 50% effective concentration (EC50) was 944 nM and the “% max agonist effect (Emax)” value was 95.1%.

Take `COc1ccncc1N1CC[C@H](NS(C)(=O)=O)[C@@H]1CO[C@H]1CC[C@@H](c2ccccc2)CC1` [Example 51, N-((2R,3S)-1-(4-methoxypyridin-3-yl)-2-((((CIS)-4-phenylcyclohexyl)oxy)methyl)pyrrolidin-3-yl)methanesulfonamide]: the EC50 was found to be 14.2 nM and the “% max agonist effect (Emax)” value is 100.3%.

With `CS(=O)(=O)N[C@H]1CCN(c2cncc(OC(F)F)c2)[C@H]1CO[C@H]1CC[C@@H](c2ccccc2)CC1` [Example 52, N-((2R,3S)-1-(5-(difluoromethoxy)pyridin-3-yl)-2-((((CIS)-4-phenylcyclohexyl)oxy)methyl)pyrrolidin-3-yl)methanesulfonamide], the EC50 is 649 nM and the “% max agonist effect (Emax)” value came out at 99.2%.

Take `COc1ccc(N2CC[C@H](NS(C)(=O)=O)[C@@H]2CO[C@H]2CC[C@@H](c3ccccc3)CC2)cn1` [Example 53, N-((2R,3S)-1-(6-methoxypyridin-3-yl)-2-((((CIS)-4-phenylcyclohexyl)oxy)methyl)pyrrolidin-3-yl)methanesulfonamide]: the EC50 turned out to be 223 nM and the “% max agonist effect (Emax)” value is recorded as 100.6%.

As to `COc1cc(N2CC[C@H](NS(C)(=O)=O)[C@@H]2CO[C@H]2CC[C@@H](c3ccccc3)CC2)cnc1OC` [Example 54, N-((2R,3S)-1-(5,6-dimethoxypyridin-3-yl)-2-((((CIS)-4-phenylcyclohexyl)oxy)methyl)pyrrolidin-3-yl)methanesulfonamide], the EC50 was determined as 782 nM and the “% max agonist effect (Emax)” value was 98.9%.

For the compound `COc1ncc(N2CC[C@H](NS(C)(=O)=O)[C@@H]2CO[C@H]2CC[C@@H](c3ccccc3)CC2)cc1C` [Example 55, N-((2R,3S)-1-(6-methoxy-5-methylpyridin-3-yl)-2-((((CIS)-4-phenylcyclohexyl)oxy)methyl)pyrrolidin-3-yl)methanesulfonamide], the EC50 turned out to be 2380 nM and the “% max agonist effect (Emax)” value was 91.4%.

Regarding `CS(=O)(=O)N[C@H]1CCN(c2ccncc2CO)[C@H]1CO[C@H]1CC[C@@H](c2ccccc2)CC1` [Example 56, N-((2R,3S)-1-(3-(hydroxymethyl)pyridin-4-yl)-2-((((CIS)-4-phenylcyclohexyl)oxy)methyl)pyrrolidin-3-yl)methanesulfonamide], the EC50 is more than 10000 nM and the “% max agonist effect (Emax)” value is reported as 61.6%.

As for `CS(=O)(=O)N[C@H]1CCN(c2ccncc2)[C@H]1CO[C@H]1CC[C@@H](c2ccccc2)CC1` [Example 57, N-((2R,3S)-2-((((CIS)-4-phenylcyclohexyl)oxy)methyl)-1-(pyridin-4-yl)pyrrolidin-3-yl)methanesulfonamide], the EC50 is 4050 nM and the “% max agonist effect (Emax)” value is listed as 87.6%.

Consider `CS(=O)(=O)N[C@H]1CCN(c2ccc(OC(F)F)nc2)[C@H]1CO[C@H]1CC[C@@H](c2ccccc2)CC1` [Example 58, N-((2R,3S)-1-(6-(difluoromethoxy)pyridin-3-yl)-2-((((CIS)-4-phenylcyclohexyl)oxy)methyl)pyrrolidin-3-yl)methanesulfonamide], for which the EC50 amounted to 162 nM and the “% max agonist effect (Emax)” value is 100.9%.

Consider `COc1cc(N2CC[C@H](NS(C)(=O)=O)[C@@H]2CO[C@H]2CC[C@@H](c3ccccc3)CC2)ccn1` [Example 59, N-((2R,3S)-1-(2-methoxypyridin-4-yl)-2-((((CIS)-4-phenylcyclohexyl)oxy)methyl)pyrrolidin-3-yl)methanesulfonamide], for which the EC50 was 2860 nM and the “% max agonist effect (Emax)” value is 87.2%.

`Cc1ncc(N2CC[C@H](NS(C)(=O)=O)[C@@H]2CO[C@H]2CC[C@@H](c3ccccc3)CC2)cn1` [Example 60, N-((2R,3S)-1-(2-methylpyrimidin-5-yl)-2-((((CIS)-4-phenylcyclohexyl)oxy)methyl)pyrrolidin-3-yl)methanesulfonamide]: the EC50 came out at 251 nM and the “% max agonist effect (Emax)” value was 100.0%.

Regarding `CC(C)(O)c1ccc(N2CC[C@H](NS(C)(=O)=O)[C@@H]2CO[C@H]2CC[C@@H](c3ccccc3)CC2)cn1` [Example 61, N-((2R,3S)-1-(6-(2-hydroxypropan-2-yl)pyridin-3-yl)-2-((((CIS)-4-phenylcyclohexyl)oxy)methyl)pyrrolidin-3-yl)methanesulfonamide], the EC50 was 38.3 nM and the “% max agonist effect (Emax)” value is listed as 101.3%.

As for `Cc1cncc(N2CC[C@H](NS(C)(=O)=O)[C@@H]2CO[C@H]2CC[C@@H](c3ccccc3)CC2)n1` [Example 62, N-((2R,3S)-1-(6-methylpyrazin-2-yl)-2-((((CIS)-4-phenylcyclohexyl)oxy)methyl)pyrrolidin-3-yl)methanesulfonamide], the EC50 was found to be 330 nM and the “% max agonist effect (Emax)” value came to 100.6%.
